Substitutions are numbered along the chain they refer to.
Experiments:
[1] = system: AinR^Q204H; assay: Bioluminescence of V. harveyi XK006 harboring ainR Q204H; type: cell-based, Vibrio fischeri
[2] = molecular target: LuxN^L166A mutant with Ser209 (Vibrio campbellii, UniProt A7MRY4, I209S/L166A); conditions: AHLs added at 1 μM
[3] = system: WT AinR; assay: Bioluminescence of V. harveyi XK006 harboring WT V. fischeri ainR; type: cell-based, Vibrio fischeri; conditions: AHLs added at 1 μM
[4] = molecular target: T1, LuxN (Vibrio campbellii, UniProt A7MRY4); type: cell-based, Vibrio harveyi; conditions: 1 μM AHL with 20 nM AI-1; V. harveyi TL25
[5] = molecular target: LuxN^L166A (Vibrio campbellii, UniProt A7MRY4, L166A)
[6] = molecular target: luxN^L166A/H210N (Vibrio campbellii, UniProt A7MRY4, H210N/L166A); conditions: AHLs added at 1 μM
[7] = molecular target: luxN^S230P (Vibrio campbellii, UniProt A7MRY4, S230P); conditions: 10 μM 3O-C10 HSL
[8] = molecular target: T2, luxN^T159I/Y193K (Vibrio campbellii, UniProt A7MRY4, N193K/T159I); assay: Bioluminescence of V. harveyi XK006 carrying luxN T159I/Y193K; type: cell-based, Vibrio harveyi; conditions: 10 μM 3O-C10 HSL
T2 sequence (A7MRY4 1-849 T159I/N193K): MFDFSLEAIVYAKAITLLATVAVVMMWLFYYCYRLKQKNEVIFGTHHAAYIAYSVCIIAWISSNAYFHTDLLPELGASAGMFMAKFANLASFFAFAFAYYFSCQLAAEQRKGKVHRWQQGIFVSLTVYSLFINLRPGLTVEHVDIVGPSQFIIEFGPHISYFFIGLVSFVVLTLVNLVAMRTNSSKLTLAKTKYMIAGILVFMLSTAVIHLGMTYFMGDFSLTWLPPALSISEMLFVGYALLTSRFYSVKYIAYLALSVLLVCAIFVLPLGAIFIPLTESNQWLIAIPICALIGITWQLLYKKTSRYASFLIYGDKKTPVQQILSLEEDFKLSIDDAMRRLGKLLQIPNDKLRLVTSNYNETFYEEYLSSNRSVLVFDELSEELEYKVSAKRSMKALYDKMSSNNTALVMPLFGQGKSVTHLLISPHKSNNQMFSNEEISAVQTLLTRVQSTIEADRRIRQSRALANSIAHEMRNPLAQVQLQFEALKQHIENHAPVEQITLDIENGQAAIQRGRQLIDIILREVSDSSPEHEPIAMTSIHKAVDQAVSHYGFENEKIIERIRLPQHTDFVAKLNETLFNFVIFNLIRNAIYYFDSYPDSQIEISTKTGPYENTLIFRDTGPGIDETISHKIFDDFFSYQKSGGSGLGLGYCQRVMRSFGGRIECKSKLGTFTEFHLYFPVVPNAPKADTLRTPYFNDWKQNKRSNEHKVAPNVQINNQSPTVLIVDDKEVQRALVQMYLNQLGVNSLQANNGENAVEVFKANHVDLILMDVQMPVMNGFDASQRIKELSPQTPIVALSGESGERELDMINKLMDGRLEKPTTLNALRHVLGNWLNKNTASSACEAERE

[9] = molecular target: T3, luxN^S184I/S230P (Vibrio campbellii, UniProt A7MRY4, S184I/S230P); assay: Bioluminescence of V. harveyi XK006 carrying luxN S184I/S230P; type: cell-based, Vibrio harveyi; conditions: 10 μM 3O-C10 HSL
T3 sequence (A7MRY4 1-849 S184I/S230P): T2 sequence (A7MRY4 1-849 T159I/N193K) with I159T, S184I, K193N, S230P

[10] = molecular target: T4, LuxN^H210Q (Vibrio campbellii, UniProt A7MRY4, H210Q); assay: Bioluminescence of V. harveyi XK006 carrying luxN H210Q; type: cell-based, Vibrio harveyi; conditions: 1 μM AHL
T4 sequence (A7MRY4 1-849 H210Q): T2 sequence (A7MRY4 1-849 T159I/N193K) with I159T, K193N, H210Q

[11] = molecular target: T5, LuxN^H210T (Vibrio campbellii, UniProt A7MRY4, H210T); assay: Bioluminescence of V. harveyi XK006 carrying luxN H210T; type: cell-based, Vibrio harveyi; conditions: 1 μM AHL
T5 sequence (A7MRY4 1-849 H210T): T2 sequence (A7MRY4 1-849 T159I/N193K) with I159T, K193N, H210T

[12] = system: Kin^off LuxN mutants; assay: Bioluminescence of V. harveyi XK847 harboring Kin^off luxN alleles; type: cell-based, Vibrio harveyi
[13] = molecular target: T1, LuxN; conditions: 1 μM AHL; V. harveyi TL25
[14] = molecular target: WT LuxN (Vibrio campbellii, UniProt A7MRY4); conditions: XK006 carrying WT luxN

CCCCCC(O)CC(=O)N[C@H]1CCOC1=O (some centres unmarked) [3OH-C8 HSL]
detection (light production) [1]: lost the ability to detect
ligand detection (light production) [2]: restricted to 3OH-C8 HSL
light production [3]: light production was induced
reduction in light production [4]: five-fold
detection (light production) [5]: robustly detects
light production [6]: Significantly less light

CCCCCCCC(=O)CC(=O)N[C@H]1CCOC1=O [3O-C10 HSL]
induction of light production [7]: 20 fold
increase in light production [8]: 20 fold
increase in light production [9]: 10 fold

CCCC(=O)N[C@H]1CCOC1=O [C4 HSL]
induction of light production [10]: 30 fold
induction of light production [11]: 100 fold
light production / detection [12]: also detected
induction of light production [13]: did not induce light production

C[C@@H](O)CC(=O)N[C@H]1CCOC1=O [(S)-3OH-C4 HSL]
response (dose-dependent light production) [14]: did not respond

From PMC4275348 (Molecular microbiology, 2014)
